Tests used:
SN12C = settings: renal cancer, mutant p53, 48 h
SK-MEL-2 = settings: SK-MEL-2, melanoma, mutant p53; 48 h
NCI-H23 = settings: NCI-H23, non-small-cell lung cancer, mutant p53; 48 h
786-0 = settings: 786-0, renal cancer, mutant p53; 48 h
DU-145 cells = test: Cytochrome c assay (mitochondrial and cytosolic), ELISA; format: cell-based, human; settings: 25 µM
Procedure: (§1) Cell numbers of 2 × 10^6 PC-3 and DU-145 cells were seeded into a […]. […] The protein content for each fraction was calculated to determine the mass content of cytochrome c in each fraction (pg cytochrome c/mg total protein). The mass content of cytochrome c (pg cytochrome c/mg total protein) was normalized towards the corresponding blank DMSO control and is given in percent (%) of blank DMSO control.

PC-3 cells = test: as above; format: cell-based, human
Procedure: as §1

NCI-H522 = settings: NCI-H522, non-small-cell lung cancer, mutant p53; 48 h
HT29 = settings: HT29, colon cancer, mutant p53; 48 h
HCT-15 = settings: HCT-15, colon cancer, mutant p53; 48 h
SF-295 = settings: SF-295, CNS cancer (brain tumor), mutant p53; 48 h
CCRF-CEM = settings: leukemia, mutant p53, 48 h
PC-3 = settings: PC-3, prostate cancer, mutant p53 (null p53 protein); 48 h
MALME-3M = settings: MALME-3M, melanoma, wild-type p53; 48 h
SK-MEL-28 = settings: SK-MEL-28, melanoma, mutant p53; 48 h
LOX IMVI = settings: melanoma, wild-type p53, 48 h
TK-10 = settings: TK-10, renal cancer, mutant p53; 48 h
BT-549 = settings: BT-549, breast cancer, mutant p53; 48 h
MDA-MB-231 = settings: MDA-MB-231, breast cancer, mutant p53; 48 h
KM-12 = settings: KM-12, colon cancer, mutant p53; 48 h
NCI-H460 = settings: NCI-H460, non-small-cell lung cancer, wild-type p53; 48 h
NCI-H226 = settings: NCI-H226, non-small-cell lung cancer, p53 Lit. inconclusive; 48 h
HOP-62 = settings: HOP-62, non-small-cell lung cancer, mutant p53; 48 h
RXF 393 = settings: RXF 393, renal cancer, mutant p53; 48 h
DU-145 = settings: DU-145, prostate cancer, mutant p53; 48 h
OVCAR-4 = settings: OVCAR-4, ovarian cancer, mutant p53; 48 h
HS 578T = settings: HS 578T, breast cancer, mutant p53; 48 h

COc1cc2c(c(OC)c1OC)-c1ccc(NNC(=S)N(Cc3cccc(C[N+](Cc4cccc(CNC56CC7CC(CC(C7)C5)C6)c4)(Cc4cccc(CNC56CC7CC(CC(C7)C5)C6)c4)Cc4cccc(CN(C(=S)NNc5ccc6c(cc5=O)C(NC(C)=O)CCc5cc(OC)c(OC)c(OC)c5-6)C56CC7CC(CC(C7)C5)C6)c4)c3)C34CC5CC(CC(C5)C3)C4)c(=O)cc1C(NC(C)=O)CC2 [Compound 3, [(bis{3-[(tricyclo[3.3.1.1^3,7]decan-1-ylamino)methyl]benzyl}ammonio)bis(methanediylbenzene-3,1-diylmethanediyl)]di-2-[(aS,7S)-7-(acetylamino)-1,2,3-trimethoxy-9-oxo-5,6,7,9-tetrahydrobenzo[a]heptalen-10-yl]-N-(tricyclo[3.3.1.1^3,7]decan-1-yl)hydrazinecarbothioamide chloride pentahydrate]
TGI (SN12C): 6.90 µM | TGI (SK-MEL-2): 2.76 µM | TGI (NCI-H23): 5.33 µM | TGI (786-0): 5.28 µM | toxicity for the cell line (DU-145 cells; 50 µM and 75 µM, 48 h post-treatment): highly toxic | concentration at which cytochrome c translocation from mitochondria into the cytosol was readily induced (DU-145 cells; 48 h, tested 500 nM, 1 µM, 5 µM): 25.0 µM | toxicity for the cell line (PC-3 cells; 25 µM, 50 µM and 75 µM, 48 h post-treatment): highly toxic | cell death with depletion of cytosolic cytochrome c (PC-3 cells; 25.0 µM, 48 h): induced complete cell death | concentration at which cytochrome c translocation from mitochondria into the cytosol was readily induced (PC-3 cells; 48 h, tested 500 nM, 1 µM, 5 µM, 25 µM): 5.0 µM | TGI (NCI-H522): 1.88 µM | TGI (HT29): 2.81 µM | TGI (HCT-15): 5.96 µM | TGI (SF-295): 5.92 µM | TGI (CCRF-CEM): 2.47 µM | TGI (PC-3): 5.64 µM | TGI (MALME-3M): 3.04 µM | TGI (SK-MEL-28): 4.07 µM | TGI (LOX IMVI): 2.86 µM | TGI (TK-10): 8.35 µM | TGI (BT-549): 5.89 µM | TGI (MDA-MB-231): 2.99 µM | TGI (KM-12): 4.52 µM | TGI (NCI-H460): 3.79 µM | TGI (NCI-H226): 9.97 µM | TGI (HOP-62): 7.43 µM | TGI (RXF 393): 6.65 µM | TGI (DU-145): 7.10 µM | TGI (OVCAR-4): 8.94 µM | TGI (HS 578T): 6.76 µM

— publication PMC10892984, “Novel Antineoplastic Inducers of Mitochondrial Apoptosis in Human Cancer Cells” (Molecules, 2024)
